Drawing on PubChem BioAssay (NCI), this text covers TGI and GI50 for 10 compounds.

SMILES strings stand for the structures.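 Results reflect a 48-hour exposure of cells in 96-well plates to compound at five concentrations. Abbreviation: GI50, concentration required for 50% inhibition of growth. TGI is the concentration that stops growth completely.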

Some test systems named below: KM12 colon; HOP-92 NSCLC; SN12C renal; T-47D breast; SK-OV-3 ovarian; MDA-MB-435; A498 renal; NCI-H23 lung; M14 melanoma; NCI-H460 lung.
Experiment in all cases: NCI-60 cell line screen, 48 h

With `O=C(/C=C/c1ccc(O)c(-c2cc(C(=O)/C=C/c3ccc(O)cc3)c(O)cc2O)c1)c1ccc(O)cc1O`, the TGI in the assay on KM12 colon was 31.7 µM; in the assay with HOP-92 NSCLC, > 50 µM; in the assay with SN12C renal, > 50 µM; with T-47D breast, > 50 µM; with SK-OV-3 ovarian, 48.3 µM; with MDA-MB-435, > 50 µM. The TGI with A498 renal, in the assay on NCI-H23 lung, with M14 melanoma and in the assay on NCI-H460 lung was > 50 µM each time.
As to `CNc1ccc2c(c1)[C@@]1(C)c3ccccc3[C@@H](C2)N1C`, the TGI with KM12 colon was 78.3 µM; with HOP-92 NSCLC it was 74.4 µM; in the assay on SN12C renal, 33 µM; with T-47D breast it was > 100 µM; in the assay with SK-OV-3 ovarian, > 100 µM; in the assay on MDA-MB-435 it was 39.1 µM. Also, the TGI in the assay on A498 renal was 74 µM; in the assay with NCI-H23 lung, 61.5 µM; in the assay with M14 melanoma, 49.6 µM; in the assay with NCI-H460 lung, 39.9 µM.
As for `O=C(C[n+]1ccc2ccccc2c1)c1ccc2ccc3ccccc3c2c1`, the TGI with KM12 colon came to 11.5 µM; in the assay with HOP-92 NSCLC it was 18.8 µM; in the assay with SN12C renal, 14.7 µM; in the assay on T-47D breast, 19.3 µM; with SK-OV-3 ovarian, 21 µM; in the assay with MDA-MB-435, 7.75 µM. Besides, the TGI in the assay with A498 renal stood at 18.6 µM; in the assay on NCI-H23 lung, 17.6 µM; in the assay with M14 melanoma, 10.6 µM; in the assay with NCI-H460 lung, 5.85 µM.
As to `CC1CC[C@@]2(OC1)OC1C[C@H]3[C@@H]4CC=C5CC(OC6OC(CO)C(OC7OC(CO)C(O)C(OC8OCC(O)C(O)C8O)C7OC7OC(CO)C(O)C(O)C7O)C(O)C6O)CCC5(C)[C@H]4CCC3(C)C1[C@@H]2C` (stereo not given in full), the TGI with KM12 colon is 10.5 µM; in the assay on HOP-92 NSCLC, > 25 µM; in the assay on SN12C renal, 8.27 µM; in the assay on T-47D breast, 11.9 µM; in the assay on SK-OV-3 ovarian it was 20.7 µM; in the assay with MDA-MB-435, 13.4 µM. In addition, the TGI amounted to 9.19 µM with A498 renal, 11.7 µM in the assay on NCI-H23 lung, 17.1 µM with M14 melanoma and 11.8 µM in the assay on NCI-H460 lung.
Turning to `C[C@H](CCC(=O)O)[C@H]1CC[C@@]2(C)[C@@H]3C(=O)C[C@H]4C(C)(C)[C@@H](O)CC[C@]4(C)[C@H]3C(=O)C[C@]12C`, the TGI with KM12 colon, in the assay on HOP-92 NSCLC, in the assay with SN12C renal, in the assay with T-47D breast, in the assay on SK-OV-3 ovarian and with MDA-MB-435 was > 100 µM each time. In addition, the TGI in the assay with A498 renal, in the assay on NCI-H23 lung, in the assay on M14 melanoma and with NCI-H460 lung was > 100 µM each time.
On to `Cc1ccccc1C(=O)N/N=C/c1ccc(Sc2nccn2C)c([N+](=O)[O-])c1`, for which the TGI with KM12 colon is > 100 µM; in the assay with HOP-92 NSCLC it was 88.2 µM; in the assay on SN12C renal it was > 100 µM; in the assay with T-47D breast it was > 100 µM; in the assay with SK-OV-3 ovarian, > 100 µM; in the assay on MDA-MB-435, 81.1 µM. Besides, the TGI in the assay on A498 renal, with NCI-H23 lung, in the assay with M14 melanoma and in the assay with NCI-H460 lung was > 100 µM throughout.
On to `COc1ccc(C(=O)/C=C/c2cccc([N+](=O)[O-])c2)c(OC)c1`, for which the GI50 in the assay on KM12 colon was 1.61 µM; in the assay on HOP-92 NSCLC, 3.92 µM; in the assay on SN12C renal, 1.18 µM; in the assay on T-47D breast, 1.93 µM; in the assay on SK-OV-3 ovarian, 18.9 µM; in the assay with MDA-MB-435 it was 1.76 µM. In addition, the GI50 with A498 renal is 11.1 µM; in the assay on NCI-H23 lung it was 2.61 µM; in the assay on M14 melanoma it was 1.62 µM; with NCI-H460 lung it was 1.27 µM. The TGI in the assay with KM12 colon was 7.65 µM; in the assay with HOP-92 NSCLC, > 50 µM; with SN12C renal, 2.99 µM; in the assay with T-47D breast, > 50 µM; in the assay with SK-OV-3 ovarian it was > 50 µM; in the assay on MDA-MB-435, > 50 µM. The TGI is > 50 µM with A498 renal, > 50 µM in the assay on NCI-H23 lung, > 50 µM in the assay with M14 melanoma and 3.31 µM with NCI-H460 lung.
Regarding `Cc1c(N2C(=O)CS(=O)(=O)C2c2cccc(Oc3ccccc3)c2)c(=O)n(-c2ccccc2)n1C` (stereo not given), the TGI with KM12 colon, in the assay with HOP-92 NSCLC, in the assay with SN12C renal, in the assay on T-47D breast, in the assay on SK-OV-3 ovarian and in the assay on MDA-MB-435 was > 100 µM in each case. Further, the TGI is 55.9 µM in the assay with A498 renal, > 100 µM in the assay with NCI-H23 lung, > 100 µM with M14 melanoma and > 100 µM in the assay on NCI-H460 lung.
Take `CC1=CC(=O)c2ccccc2C1=O`: the TGI worked out at 23 µM with KM12 colon; 2.94 µM in the assay on HOP-92 NSCLC; 25 µM in the assay on SN12C renal; 5.33 µM with T-47D breast; 25.7 µM with SK-OV-3 ovarian; 3.81 µM with MDA-MB-435. Further, the TGI in the assay with A498 renal was found to be 39.1 µM; with NCI-H23 lung it was 19.4 µM; in the assay on M14 melanoma, 15.8 µM; in the assay on NCI-H460 lung, 24.5 µM.
As for `COc1ccc(C(=O)c2sc(Nc3ccc(Cl)cc3)nc2N)cc1`, the TGI was > 100 µM in the assay on KM12 colon; > 63.5 µM in the assay on HOP-92 NSCLC; > 62.8 µM in the assay with SN12C renal; > 100 µM in the assay on T-47D breast; 27.2 µM with SK-OV-3 ovarian; 7.35 µM in the assay with MDA-MB-435. The TGI with A498 renal was > 75 µM; with NCI-H23 lung it was > 51.6 µM; in the assay on M14 melanoma, > 100 µM; in the assay on NCI-H460 lung, 36.3 µM.
